The values that follow come from patent US20240001019A1, “MBL-COATED SUBSTRATES HAVING ANTI-THROMBOGENIC PROPERTIES” (MIRAKI INNOVATION THINK TANK LLC, priority 2020, published 2024).

Where only a bound is given, the exact number is not on record here.

Data set [1] can be described thus: Retention of coupled FcMBL on the membrane under flow (PBS/EDTA wash fractions). The format is physicochemical. To be noted: Lot 152-04052017, Devices #1-#3, serial 45 mL fractions. The protocol: The FcMBL protein concentration in each sample was determined using the Pierce 660 nm assay and an FcMBL standard curve.
Three Filtrivas from Lot 152-04052017 (Devices #1, #2, and #3) were selected for analysis of their respective PBS/EDTA wash fractions to determine the extent to which the FcMBL bound to the membrane, remains bound under flow conditions. The mass of protein obtained from five serial fractions of 45 mL, three fractions from the Blood Port Output and two fractions from the subsequent Wash Buffer, was determined. […] After the second Blood Port Output, the amount of FcMBL in the subsequent fractions was undetectable (data not shown).

The subject of data set [2] is CD62P (platelet P-selectin). Nature of the data set: Flow-cytometric analysis of platelet activation (CD62P on CD41a positive platelets). The format is cell-based, human. To be noted: for CD62P geometrical means of fluorescence intensity from TRAP-incubated samples: 35 μM TRAP, 20 min.

Take “FcMBL: 383-amino acid human recombinant fusion protein: carbohydrate-binding and neck domains of MBL and Fc domain of human IgG1”: the “FcMBL coupled to the membrane under flow, PBS/EDTA washing” value in data set [1] was “stays bound under flow conditions”.

On to “thrombin receptor activating peptide [TRAP]”, for which the “CD62P geometrical means of fluorescence intensity from TRAP-incubated samples” value in data set [2] (1st experiment) was 1376; in data set [2] (2nd experiment), 209; in data set [2] (3rd experiment), 350. Also, in data set [2] (all experiments), the “CD62P geometrical means of fluorescence intensity, positive control” value is listed as above 200.
